Measurements: ChEMBL document CHEMBL4339212, “Novel 7-formyl-naphthyridyl-ureas derivatives as potential selective FGFR4 inhibitors: Design, synthesis, and biological activity studies” (Bioorg Med Chem, 2019)

Key:
[1] = target: Fibroblast growth factor receptor 2 (Homo sapiens, UniProt P21802); experiment: Inhibition of FGFR2 (unknown origin)
[2] = target: Non-receptor tyrosine-protein kinase TYK2 (Homo sapiens, UniProt P29597); experiment: Inhibition of TYK2 (unknown origin)
[3] = Toxicity in male BALB/c mouse assessed as effect on body weight at 50 to 450 mg/kg/day, ig dosed once daily for 4 weeks followed by rehabilitation for another 28 days; format: organism-based; details: in vivo, po, 672 h
[4] = target: Leukocyte tyrosine kinase receptor (Homo sapiens, UniProt P29376); experiment: Inhibition of LTK (unknown origin)
[5] = target: Macrophage-stimulating protein receptor (Homo sapiens, UniProt Q04912); experiment: Inhibition of RON (unknown origin)
[6] = target: Vascular endothelial growth factor receptor 2 (Homo sapiens, UniProt P35968); experiment: Inhibition of KDR (unknown origin)
[7] = target: Tyrosine-protein kinase receptor UFO (Homo sapiens, UniProt P30530); experiment: Inhibition of AXL (unknown origin)
[8] = target: Fibroblast growth factor receptor 1 (Homo sapiens, UniProt P11362); experiment: Inhibition of FGFR1 (unknown origin)
[9] = Toxicity in male BALB/c mouse at 200 to 2000 mg/kg, ig administered as single dose measured after 14 days; format: organism-based; details: in vivo, po
[10] = Toxicity in female BALB/c mouse at 50 to 450 mg/kg/day, ig dosed once daily for 4 weeks followed by rehabilitation for another 28 days; format: organism-based; details: in vivo, po
[11] = Toxicity in male BALB/c mouse assessed as effect on clinical pathology parameters at 200 to 2000 mg/kg, ig administered as single dose measured after 14 days; format: organism-based; details: in vivo, po, 336 h
[12] = target: Vascular endothelial growth factor receptor 3 (Homo sapiens, UniProt P35916); experiment: Inhibition of FLT4 (unknown origin)
[13] = target: Insulin-like growth factor 1 receptor (Homo sapiens, UniProt P08069); experiment: Inhibition of IGF1R (unknown origin)
[14] = target: Fibroblast growth factor receptor 4 (Homo sapiens, UniProt P22455); experiment: Inhibition of FGFR4 (unknown origin) incubated for 60 mins by caliper microfluidic mobility shift technology based assay
Fibroblast growth factor receptor 4, sequence (P22455 whole entry): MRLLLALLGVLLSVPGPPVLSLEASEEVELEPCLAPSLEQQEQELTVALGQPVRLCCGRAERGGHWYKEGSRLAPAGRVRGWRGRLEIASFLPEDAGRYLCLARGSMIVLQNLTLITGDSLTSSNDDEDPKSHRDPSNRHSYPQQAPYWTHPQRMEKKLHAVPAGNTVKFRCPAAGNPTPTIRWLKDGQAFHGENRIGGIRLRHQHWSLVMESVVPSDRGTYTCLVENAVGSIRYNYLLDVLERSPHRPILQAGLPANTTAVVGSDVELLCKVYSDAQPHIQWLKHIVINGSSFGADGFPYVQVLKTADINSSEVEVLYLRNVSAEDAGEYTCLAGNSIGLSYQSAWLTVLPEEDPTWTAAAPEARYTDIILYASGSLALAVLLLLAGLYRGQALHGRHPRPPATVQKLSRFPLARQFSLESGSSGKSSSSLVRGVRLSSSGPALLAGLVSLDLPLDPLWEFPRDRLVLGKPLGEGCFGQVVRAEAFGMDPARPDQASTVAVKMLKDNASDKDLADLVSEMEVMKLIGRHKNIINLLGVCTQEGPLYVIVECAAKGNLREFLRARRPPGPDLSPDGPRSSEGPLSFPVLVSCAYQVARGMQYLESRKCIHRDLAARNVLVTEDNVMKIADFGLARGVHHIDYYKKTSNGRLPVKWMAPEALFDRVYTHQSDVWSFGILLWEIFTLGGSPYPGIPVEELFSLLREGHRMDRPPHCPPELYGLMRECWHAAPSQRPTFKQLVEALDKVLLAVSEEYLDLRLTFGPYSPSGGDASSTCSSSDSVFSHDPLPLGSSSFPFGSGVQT

Leukocyte tyrosine kinase receptor, sequence (P29376 whole entry): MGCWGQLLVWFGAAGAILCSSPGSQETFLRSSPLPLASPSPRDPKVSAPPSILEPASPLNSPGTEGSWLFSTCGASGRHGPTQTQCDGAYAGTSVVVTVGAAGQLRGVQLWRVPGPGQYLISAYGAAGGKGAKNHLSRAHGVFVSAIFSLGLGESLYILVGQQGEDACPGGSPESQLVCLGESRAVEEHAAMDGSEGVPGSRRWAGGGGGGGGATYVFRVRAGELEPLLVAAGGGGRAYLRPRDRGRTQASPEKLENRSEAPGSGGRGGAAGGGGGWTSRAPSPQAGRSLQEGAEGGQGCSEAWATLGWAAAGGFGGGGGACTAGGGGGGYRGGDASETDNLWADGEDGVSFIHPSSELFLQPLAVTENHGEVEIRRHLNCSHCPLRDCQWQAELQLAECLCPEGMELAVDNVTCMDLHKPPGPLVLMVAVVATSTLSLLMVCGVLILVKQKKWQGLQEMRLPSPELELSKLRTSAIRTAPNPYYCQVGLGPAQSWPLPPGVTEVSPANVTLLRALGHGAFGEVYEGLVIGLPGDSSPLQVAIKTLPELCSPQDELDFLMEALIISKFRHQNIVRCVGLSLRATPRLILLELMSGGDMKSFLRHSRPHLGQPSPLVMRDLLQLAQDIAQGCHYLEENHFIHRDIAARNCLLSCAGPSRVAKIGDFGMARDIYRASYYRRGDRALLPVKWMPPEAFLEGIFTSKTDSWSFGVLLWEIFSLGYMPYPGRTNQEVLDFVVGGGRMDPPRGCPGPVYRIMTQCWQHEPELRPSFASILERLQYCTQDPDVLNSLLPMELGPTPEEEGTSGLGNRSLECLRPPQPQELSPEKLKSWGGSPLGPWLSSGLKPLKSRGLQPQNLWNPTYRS
Fibroblast growth factor receptor 2, sequence (P21802 whole entry): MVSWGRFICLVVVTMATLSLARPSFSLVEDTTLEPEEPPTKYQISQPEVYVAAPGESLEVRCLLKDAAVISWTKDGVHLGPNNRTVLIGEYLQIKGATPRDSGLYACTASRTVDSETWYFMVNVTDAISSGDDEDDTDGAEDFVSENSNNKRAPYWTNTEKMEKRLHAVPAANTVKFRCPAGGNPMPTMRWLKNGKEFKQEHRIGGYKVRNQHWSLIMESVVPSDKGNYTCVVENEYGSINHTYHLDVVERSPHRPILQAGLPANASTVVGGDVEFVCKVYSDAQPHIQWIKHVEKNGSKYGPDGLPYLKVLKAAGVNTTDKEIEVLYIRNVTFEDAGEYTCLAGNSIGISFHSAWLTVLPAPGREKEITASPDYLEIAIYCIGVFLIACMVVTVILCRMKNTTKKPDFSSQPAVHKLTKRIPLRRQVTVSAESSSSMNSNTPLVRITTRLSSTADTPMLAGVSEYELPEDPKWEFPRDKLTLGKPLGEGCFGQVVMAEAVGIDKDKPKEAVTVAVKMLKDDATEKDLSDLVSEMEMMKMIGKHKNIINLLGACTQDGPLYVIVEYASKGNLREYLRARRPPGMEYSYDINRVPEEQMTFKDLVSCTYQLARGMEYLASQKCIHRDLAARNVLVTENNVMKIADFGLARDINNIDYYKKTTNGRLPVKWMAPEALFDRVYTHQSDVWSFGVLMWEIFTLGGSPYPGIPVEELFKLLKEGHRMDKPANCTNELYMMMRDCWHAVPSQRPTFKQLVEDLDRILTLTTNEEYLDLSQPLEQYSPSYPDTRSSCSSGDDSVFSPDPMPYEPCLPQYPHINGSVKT
Vascular endothelial growth factor receptor 3, sequence (P35916 whole entry): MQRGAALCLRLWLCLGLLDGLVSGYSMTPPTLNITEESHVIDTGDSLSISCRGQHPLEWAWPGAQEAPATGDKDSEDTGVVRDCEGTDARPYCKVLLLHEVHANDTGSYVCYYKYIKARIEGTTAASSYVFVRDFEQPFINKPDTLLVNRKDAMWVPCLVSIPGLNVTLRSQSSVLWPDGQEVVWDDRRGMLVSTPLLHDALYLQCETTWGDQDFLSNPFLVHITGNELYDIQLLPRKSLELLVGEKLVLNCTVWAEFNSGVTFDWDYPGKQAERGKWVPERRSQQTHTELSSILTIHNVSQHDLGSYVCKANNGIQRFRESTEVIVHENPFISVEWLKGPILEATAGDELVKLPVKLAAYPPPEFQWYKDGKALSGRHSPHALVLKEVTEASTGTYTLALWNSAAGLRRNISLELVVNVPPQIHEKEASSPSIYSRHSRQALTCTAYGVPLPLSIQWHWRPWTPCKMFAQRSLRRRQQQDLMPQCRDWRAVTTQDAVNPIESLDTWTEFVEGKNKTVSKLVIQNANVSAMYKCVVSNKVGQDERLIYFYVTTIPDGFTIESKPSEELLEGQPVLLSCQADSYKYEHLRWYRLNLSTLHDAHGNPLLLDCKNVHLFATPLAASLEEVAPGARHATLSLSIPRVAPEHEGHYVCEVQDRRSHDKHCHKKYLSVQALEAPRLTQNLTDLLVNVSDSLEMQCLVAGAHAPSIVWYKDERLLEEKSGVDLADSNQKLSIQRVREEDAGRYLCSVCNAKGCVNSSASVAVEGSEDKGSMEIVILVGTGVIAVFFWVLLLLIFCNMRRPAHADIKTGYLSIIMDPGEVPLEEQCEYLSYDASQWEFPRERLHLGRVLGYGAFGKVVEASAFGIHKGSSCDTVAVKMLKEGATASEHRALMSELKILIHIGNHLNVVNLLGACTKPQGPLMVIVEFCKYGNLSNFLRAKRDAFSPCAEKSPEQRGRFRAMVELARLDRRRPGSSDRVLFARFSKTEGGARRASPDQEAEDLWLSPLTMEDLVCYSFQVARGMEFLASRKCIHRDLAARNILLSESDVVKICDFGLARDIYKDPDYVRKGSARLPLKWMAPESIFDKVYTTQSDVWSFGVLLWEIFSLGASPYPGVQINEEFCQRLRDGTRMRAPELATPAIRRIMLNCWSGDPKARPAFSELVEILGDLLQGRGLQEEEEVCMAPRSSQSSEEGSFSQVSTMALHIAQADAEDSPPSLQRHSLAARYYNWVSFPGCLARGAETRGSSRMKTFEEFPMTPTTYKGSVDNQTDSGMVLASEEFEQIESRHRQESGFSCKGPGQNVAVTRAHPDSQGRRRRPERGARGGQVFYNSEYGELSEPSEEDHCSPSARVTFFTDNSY
Non-receptor tyrosine-protein kinase TYK2, sequence (P29597 whole entry): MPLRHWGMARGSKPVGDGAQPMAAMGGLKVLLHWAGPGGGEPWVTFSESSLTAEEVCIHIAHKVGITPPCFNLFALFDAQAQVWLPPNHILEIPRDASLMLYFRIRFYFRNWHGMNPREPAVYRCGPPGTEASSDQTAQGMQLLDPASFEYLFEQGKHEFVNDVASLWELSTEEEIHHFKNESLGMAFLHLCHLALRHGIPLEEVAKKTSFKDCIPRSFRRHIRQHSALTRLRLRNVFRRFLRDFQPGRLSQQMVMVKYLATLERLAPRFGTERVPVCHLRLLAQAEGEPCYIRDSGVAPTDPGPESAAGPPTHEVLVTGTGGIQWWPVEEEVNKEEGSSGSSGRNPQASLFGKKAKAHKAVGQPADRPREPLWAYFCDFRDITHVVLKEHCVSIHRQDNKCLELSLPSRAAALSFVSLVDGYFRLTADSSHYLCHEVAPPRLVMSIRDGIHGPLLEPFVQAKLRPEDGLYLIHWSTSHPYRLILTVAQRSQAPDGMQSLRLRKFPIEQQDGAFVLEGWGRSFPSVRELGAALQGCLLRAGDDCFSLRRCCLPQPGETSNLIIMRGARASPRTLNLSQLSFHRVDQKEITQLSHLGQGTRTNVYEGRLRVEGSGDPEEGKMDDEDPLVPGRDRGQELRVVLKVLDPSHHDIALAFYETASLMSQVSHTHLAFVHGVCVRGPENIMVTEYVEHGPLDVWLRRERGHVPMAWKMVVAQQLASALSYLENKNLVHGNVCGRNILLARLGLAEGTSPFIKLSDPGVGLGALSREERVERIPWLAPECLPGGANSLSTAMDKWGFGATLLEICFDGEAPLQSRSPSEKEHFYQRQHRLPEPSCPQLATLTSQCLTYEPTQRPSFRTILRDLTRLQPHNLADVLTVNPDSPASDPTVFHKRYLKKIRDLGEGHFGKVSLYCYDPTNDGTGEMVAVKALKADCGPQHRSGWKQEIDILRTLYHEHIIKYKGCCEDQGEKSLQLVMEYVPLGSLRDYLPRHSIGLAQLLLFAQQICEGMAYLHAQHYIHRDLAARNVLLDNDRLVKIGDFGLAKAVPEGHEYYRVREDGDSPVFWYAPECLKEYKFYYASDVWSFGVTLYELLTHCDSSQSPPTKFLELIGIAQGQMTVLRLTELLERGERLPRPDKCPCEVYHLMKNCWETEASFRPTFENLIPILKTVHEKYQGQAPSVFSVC

COC[C@@H](C)Nc1cc(NC(=O)N2CCCc3cc(CN4CCCCOC4=O)c(C=O)nc32)ncc1C#N
IC50 [1]: > 10 µM | IC50 [2]: > 10 µM | Activity [3]: Non-Toxic | IC50 [4]: > 10 µM | IC50 [5]: > 10 µM | IC50 [6]: > 10 µM | IC50 [7]: > 10 µM | IC50 [8]: > 10 µM | NOAEL at 336 h [9]: 2000 mg/kg/day | NOAEL at 672 h [10]: 150 mg/kg | Activity [11]: Non-Toxic | IC50 [12]: > 10 µM | IC50 [13]: > 10 µM | IC50 [14]: 1.5 nM
